The results in this text go back to US20250197387A1, “BCL-XL DEGRADERS AND USES THEREOF” (Kymera Therapeutics, Inc., priority 2021, published 2025).

What all share (format): cell-based
The target in test [1] is T1, BCL-XL (Homo sapiens, UniProt Q07817).
T1 construct: endogenous in cells; host or cells: MOLT-4
Description: BCL-XL degradation assay, western blot in MOLT-4 cells, 16 h. As to conditions: western blot, MOLT-4 cells, 16 h; for Dmax: read-out: Bcl-xL WB in MOLT-4 degradation 16 h: Average Dmax %; for DC50: read-out: Bcl-xL WB in MOLT-4 degradation 16 h: Mean external-Abs DC50. The method, boiled down: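 Infrared-imaged western blots quantified BCL-xL (normalised against beta-actin/GAPDH) after 16 hr, 37° C exposure of MOLT-4 cells to 0.02-10 μM compound; results given as DC50 and Dmax % bins.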

The target of test [2] is T1, BCL-XL. Description: Bcl-xL ELISA degradation in MOLT-4 cells, 6 h. As to conditions: for DC50: read-out: Bcl-xL ELISA in MOLT-4 degradation 6 h: Mean external-Abs DC50. The protocol: The letter codes for BCL-XL DC50 include: A (<0.01 μM); B (0.01-0.1 μM); C (>[…]); D (>0.5-1.0 μM); and E (>1.0 μM). The letter codes for Dmax % include A (>75%); B (50 to 75%); C (<50%).

Another test relates to MOLT-4 cells. Description: CTG (CellTiter-Glo) cell viability assay, MOLT-4. As to conditions: Homo sapiens, MOLT-4, 72 h, 3 day incubation, read-out: CTG Cell Viability Assay - MOLT-4 3 day: Average external-IC50. The method, boiled down: (§1)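 IC50 is from a three-parameter logistic fit of CellTiter-Glo luminescence after 3-day treatment of cells seeded at 10,000 per well. Codes: MOLT-4 A <0.1, B 0.1-1.0, C >1.0-3.0, D >3.0 μM; Caki-2 A <0.1, B 0.1-1.0, C >1.0-10.0, D >10.0 μM.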

The next test has as its system Caki-2 cells. Kind of test: CTG (CellTiter-Glo) cell viability assay, Caki-2. As to conditions: Homo sapiens, 72 h, 3 day incubation, read-out: CTG Chempartner - Caki-2 3 day: Average external-IC50. The method, boiled down:
as §1

T1 sequence (Q07817 whole entry): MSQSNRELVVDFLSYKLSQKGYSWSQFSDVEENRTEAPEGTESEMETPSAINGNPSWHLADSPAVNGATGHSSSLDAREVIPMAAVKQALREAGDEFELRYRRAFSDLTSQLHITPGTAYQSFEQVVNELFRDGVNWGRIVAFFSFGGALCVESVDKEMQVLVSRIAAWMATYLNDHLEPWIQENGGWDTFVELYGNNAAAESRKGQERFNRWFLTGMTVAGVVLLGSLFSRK

`Cc1ncsc1-c1ccc([C@H](C)NC(=O)[C@@H]2C[C@@H](O)CN2C(=O)[C@@H](NC(=O)CCCCCCNC(=O)c2nc(N3CCc4cccc(C(=O)Nc5nc6ccccc6s5)c4C3)ccc2-c2cnn(CC3CCCCC3)c2C)C(C)(C)C)cc1` [I-96]: the Dmax was greater than 75% on BCL-XL [1] and 50 to 75% on BCL-XL [2]. For the same compound, the DC50 at BCL-XL [1] and on BCL-XL [2] was 10 to 100 nM in each case. Also, the values for the IC50 in the test on MOLT-4 cells and in the test with Caki-2 cells were 100 to 1000 nM and greater than 10000 nM, respectively.
For `Cc1ncsc1-c1ccc(CNC(=O)[C@@H]2C[C@@H](O)CC2C(=O)[C@@H](NC(=O)C2(F)CC2)C(C)(C)C)c(OCCCCCCNC(=O)c2nc(N3CCc4cccc(C(=O)Nc5nc6ccccc6s5)c4C3)ccc2-c2cnn(CC3CCCCC3)c2C)c1` (stereo partly drawn) [I-158], the Dmax on BCL-XL [1] is 50 to 75%; at BCL-XL [2], less than 50%. Besides, the DC50 on BCL-XL [1] is 100 to 500 nM; at BCL-XL [2], greater than 1000 nM. The half-maximal inhibitory concentration (IC50) in the test on MOLT-4 cells is 1000 to 3000 nM; with Caki-2 cells, greater than 10000 nM.
Turning to `C#Cc1ccc([C@H](CO)NC(=O)[C@@H]2C[C@@H](O)CN2C(=O)[C@@H](NC(=O)CCc2ccc(S(=O)(=O)NC(=O)c3nc(N4CCc5cccc(C(=O)Nc6nc7cccnc7s6)c5C4)ccc3-c3cnn(CC4CCCCC4)c3C)cc2)C(C)(C)C)cc1` [I-205], the Dmax at BCL-XL [1] and at BCL-XL [2] was greater than 75% in each case. For the same compound, the half-maximal degradation concentration (DC50) at BCL-XL [1] was less than 10 nM; at BCL-XL [2], 10 to 100 nM. The IC50 in the test on MOLT-4 cells is 100 to 1000 nM; in the test on Caki-2 cells it was greater than 10000 nM.
With `Cc1ncsc1-c1ccc([C@H](C)NC(=O)[C@@H]2C[C@@H](O)CN2C(=O)[C@@H](NC(=O)CCCCCCC(=O)N2CCN(CC3(C)CCC(c4ccc(Cl)cc4)=C(CN4CCN(c5ccc(C(=O)NS(=O)(=O)c6ccc(N[C@H](CCN7CCOCC7)CSc7ccccc7)c(S(=O)(=O)C(F)(F)F)c6)cc5)CC4)C3)CC2)C(C)(C)C)cc1` (stereo partly drawn) [I-395], the Dmax was greater than 75% at BCL-XL [1] and less than 50% on BCL-XL [2]. Besides, the values for the DC50 on BCL-XL [1] and on BCL-XL [2] were less than 10 nM and 10 to 100 nM, respectively. The 50% inhibitory concentration (IC50) with MOLT-4 cells is less than 100 nM; in the test with Caki-2 cells it was 100 to 1000 nM.
Take `Cc1ncsc1-c1ccc(CNC(=O)[C@@H]2C[C@@H](O)CN2C(=O)[C@@H](NC(=O)C2(F)CC2)C(C)(C)C)c(OCCC2CCN(CC[C@H](CSc3ccccc3)Nc3ccc(S(=O)(=O)NC(=O)c4ccc(N5CCN(CC6=C(c7ccc(Cl)cc7)CCC(C)(C)C6)CC5)cc4)cc3S(=O)(=O)C(F)(F)F)CC2)c1` [I-183]: the Dmax is greater than 75% at BCL-XL [1] and 50 to 75% on BCL-XL [2]. Also, the 50% degradation concentration (DC50) is less than 10 nM on BCL-XL [1] and 100 to 500 nM at BCL-XL [2]. Also, the IC50 in the test with MOLT-4 cells was less than 100 nM; with Caki-2 cells, greater than 10000 nM.
With `Cc1ncsc1-c1ccc([C@H](C)NC(=O)[C@@H]2C[C@@H](O)CN2C(=O)[C@@H](NC(=O)CCCCCCC(=O)N2CCN(C[C@]3(C)CCC(c4ccc(Cl)cc4)=C(CN4CCN(c5ccc(C(=O)NS(=O)(=O)c6ccc(N[C@H](CCN7CCOCC7)CSc7ccccc7)c(S(=O)(=O)C(F)(F)F)c6)cc5)CC4)C3)CC2)C(C)(C)C)cc1` [I-397], the Dmax at BCL-XL [1] is greater than 75%; on BCL-XL [2], 50 to 75%. Further, the results for the DC50 at BCL-XL [1] and at BCL-XL [2] were less than 10 nM and 10 to 100 nM, respectively. In addition, the IC50 was less than 100 nM with MOLT-4 cells and 100 to 1000 nM in the test on Caki-2 cells.
As to `Cc1ncsc1-c1ccc(CNC(=O)[C@@H]2C[C@@H](O)CN2C(=O)[C@@H](NC(=O)CCOCCOCCOCCOCCOCCOCC#Cc2ccc(OCCCc3sc(N4CCc5cccc(C(=O)Nc6nc7ccccc7s6)c5C4)nc3C(=O)O)cc2)C(C)(C)C)cc1` [I-383], the greatest degradation seen (Dmax) on BCL-XL [1] and on BCL-XL [2] was greater than 75% in each case. The DC50 at BCL-XL [1] and at BCL-XL [2] was 10 to 100 nM in each case. Also, the half-inhibitory concentration (IC50) was in the range of 100 to 1000 nM in the test on MOLT-4 cells and 1000 to 10000 nM in the test on Caki-2 cells.
